Entries after “also recorded” stand apart in the source; their conditions may differ. Where two headings read alike, the source gives them in different places.
Key:
SARS-CoV-2 M^pro = SARS-CoV-2 M^pro (Severe acute respiratory syndrome coronavirus 2, UniProt P0DTD1); assay: biochemical; type: biochemical; details: for inhibition at 10 µM: read-out: SARS-CoV-2 M^pro % Inhibition at 10 μM; for M^pro inhibition, result in words: tested at 10 µM
[1] = test system: SARS-CoV-2 isolate NK, Pango lineage B.1.513; assay: microbe, parasite or virus in culture; type: cell-based; details: for EC50: read-out: EC50 antiviral activity; for inhibition at 10 µM: Severe acute respiratory syndrome coronavirus 2, Calu-3, 24 h, read-out: inhibition of viral titers; for inhibition of viral titers: 10 µM
HIV-1 protease = details: background statement, no reference given; cited from earlier work
[2] = test system: prostaglandin E2 (PGE2) synthesis; details: background statement, no reference given; read-out: IC50 for reduction of prostaglandin E2 synthesis; cited from earlier work
fatty acid synthase = details: background statement, no reference given; cited from earlier work
nitric oxide synthesis = details: background statement, no reference given; read-out: IC50 for reduction of nitric oxide synthesis; cited from earlier work
[3] = Dynamic light scattering (DLS) for colloidal particle formation; type: physicochemical; details: 31.6 µM, 50 mM KPi pH 7.0, 1% DMSO
[4] = biological target: T1, malate dehydrogenase (MDH) (Sus scrofa, UniProt P00346); type: biochemical; details: 31.6 µM, with or without 0.01% (v/v) Triton X-100
T1 sequence (P00346 25-338): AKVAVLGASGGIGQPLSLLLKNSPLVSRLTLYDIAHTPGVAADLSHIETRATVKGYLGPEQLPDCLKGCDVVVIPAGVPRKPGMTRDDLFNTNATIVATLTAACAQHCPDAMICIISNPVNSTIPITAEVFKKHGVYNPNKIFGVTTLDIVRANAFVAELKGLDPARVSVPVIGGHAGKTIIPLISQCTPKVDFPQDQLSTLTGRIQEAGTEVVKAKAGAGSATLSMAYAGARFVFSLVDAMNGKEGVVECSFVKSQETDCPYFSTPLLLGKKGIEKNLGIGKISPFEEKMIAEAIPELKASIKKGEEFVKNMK

[5] = FRET assay, 50 nM M^pro, 10 min preincubation
[6] = compound at 10 μM, FRET assay, 50 nM M^pro
[7] = Severe acute respiratory syndrome coronavirus 2, 24 h

## CCCCCCCCCCC[C@@H](C[C@@H]1OC(=O)[C@H]1CCCCCC)OC(=O)[C@H](CC(C)C)NC=O [Orlistat, reference compound]
SARS-CoV-2 M^pro; [5]
  IC50: > 10 µM
SARS-CoV-2 M^pro; [6]
  inhibition at 10 µM: 21%

## Cc1coc2c1C(=O)C(=O)c1c-2ccc2c(C)cccc12 [Tanshinone I]
SARS-CoV-2 M^pro; [6]
  inhibition at 10 µM: 7.03%

## C=C1C(=O)O[C@@H]2/C=C(\C)CC/C=C(\C)CC[C@@H]12 [Costunolide]
SARS-CoV-2 M^pro; [5]
  IC50: > 10 µM
SARS-CoV-2 M^pro; [6]
  inhibition at 10 µM: 28%

## C=C1C(=O)OC2C1CCC(C)=CCCC1(C)OC21 (single isomer, unassigned; (-)) [(−)-Parthenolide]
SARS-CoV-2 M^pro; [5]
  IC50: > 10 µM
SARS-CoV-2 M^pro; [6]
  inhibition at 10 µM: 20.1%

## C=C1C(=O)OC2CC3(C)CCCC(C)C3=CC12 (stereo not shown) [Alantolacton]
SARS-CoV-2 M^pro; [5]
  IC50: > 10 µM
SARS-CoV-2 M^pro; [6]
  inhibition at 10 µM: 27.6%

## COc1ccc2ccc(=O)oc2c1CC=C(C)C [Osthole]
SARS-CoV-2 M^pro; [5]
  IC50: > 10 µM
SARS-CoV-2 M^pro; [6]
  inhibition at 10 µM: 4.98%

## O=c1cc(-c2ccc(O)cc2)oc2cc(O)c(O)c(O)c12 [Scutellarein]
[1]; [7]
  EC50: 0.00257 µM
[1]
  inhibition at 10 µM: 87%
SARS-CoV-2 M^pro; [6]
  inhibition at 10 µM: 76.1%

## O=C(/C=C/c1ccc(O)c(O)c1)O[C@H](Cc1ccc(O)c(O)c1)C(=O)O [Rosmarinic acid]
[1]; [7]
  EC50: 0.0167 µM
[1]
  inhibition at 10 µM: 81%
SARS-CoV-2 M^pro; [5]
  IC50: 6.84 µM
SARS-CoV-2 M^pro; [6]
  inhibition at 10 µM: 50.6%

## CC(C)C(=O)OC[C@H]1O[C@@H](n2ccc(NO)nc2=O)[C@H](O)[C@@H]1O [Molnupiravir, reference compound]
[1]; [7]
  EC50: 0.00545 µM

## COc1c(O)cc2oc3cc(O)c(CC=C(C)C)c(O)c3c(=O)c2c1CC=C(C)C [α-Mangostin]
HIV-1 protease
  IC50: 5.12 µM
[2]
  IC50: 12.4 µM
SARS-CoV-2 M^pro; [5]
  IC50: 25.1 µM
Fatty acid synthase
  IC50: 5.54 µM
Nitric oxide synthesis
  IC50: 11.1 µM

## Oc1cc(O)cc(/C=C/c2ccc(O)c(O)c2)c1 [Piceatannol]
[1]; [7]
  EC50: 0.00342 µM
[1]
  inhibition at 10 µM: 81%
SARS-CoV-2 M^pro; [5]
  IC50: 2.03 µM
SARS-CoV-2 M^pro; [6]
  inhibition at 10 µM: 76.9%

## O=C1O[C@H]([C@@H](O)CO)C(O)=C1O [L-Ascorbic acid]
SARS-CoV-2 M^pro; [5]
  IC50: > 10 µM
SARS-CoV-2 M^pro; [6]
  inhibition at 10 µM: 22.2%

## COC1=C[C@@H]2[C@@H]3Cc4ccc(OC)c(O)c4[C@]2(CCN3C)CC1=O [Sinomenine]
SARS-CoV-2 M^pro
  IC50: > 10 µM
  inhibition at 10 µM: 4.8%

## C[C@]12CC[C@H](O)C[C@H]1CC[C@@H]1[C@@H]2CC[C@]2(C)[C@@H](c3ccc(=O)oc3)C[C@H]3O[C@]132 [Resibufogenin]
SARS-CoV-2 M^pro
  IC50: > 10 µM
  inhibition at 10 µM: 6.32%

## C=C(C)C1CCC2=CC(=O)CC(C)C2(C)C1 (single isomer, unassigned; (+)) [(+)-Nootkaton]
SARS-CoV-2 M^pro; [5]
  IC50: > 10 µM
SARS-CoV-2 M^pro; [6]
  inhibition at 10 µM: 32%

## Oc1ccc(/C=C/c2cc(O)cc(O)c2)cc1 [Resveratrol]
SARS-CoV-2 M^pro; [5]
  IC50: > 10 µM
SARS-CoV-2 M^pro; [6]
  inhibition at 10 µM: 5.96%
SARS-CoV-2 M^pro
  M^pro inhibition, result in words: unable to inhibit the enzyme

## O=c1c(O)c(-c2cc(O)c(O)c(O)c2)oc2cc(O)ccc12 [Robinetin]
[1]
  inhibition of viral titers: 89.6%
  EC50: 0.0013 µM
SARS-CoV-2 M^pro; [5]
  IC50: 0.96 µM
SARS-CoV-2 M^pro; [6]
  inhibition at 10 µM: 86.1%
[3]
  colloidal-like particle formation by DLS: neither of these compounds produced colloidal-like particles; also recorded: do not form colloidal-like particles
[4]
  MDH inhibition with 0.01% Triton X-100 (detergent reversibility): reversed in the presence of detergent

## CC1=C2C3OC(=O)C(C)C3CCC2(C)C=CC1=O (stereo not drawn) [(−)-α-Santonin]
SARS-CoV-2 M^pro; [5]
  IC50: > 10 µM
SARS-CoV-2 M^pro; [6]
  inhibition at 10 µM: 24.1%

## O=c1cc(-c2ccc(O)c(O)c2)oc2cc(O)cc(O)c12 [Luteoline]
SARS-CoV-2 M^pro; [5]
  IC50: > 10 µM
SARS-CoV-2 M^pro; [6]
  inhibition at 10 µM: 9.65%
SARS-CoV-2 M^pro
  M^pro inhibition, result in words: unable to inhibit M^pro

## O=C(/C=C/c1ccc(O)c(O)c1/C=C/c1ccc(O)c(O)c1)O[C@H](Cc1ccc(O)c(O)c1)C(=O)O [Salvianolic acid A]
SARS-CoV-2 M^pro; [6]
  inhibition at 10 µM: 50.8%

## CC(C)=CCC[C@]1(C)C=Cc2c(O)c3c(c(CC=C(C)C)c2O1)O[C@]12C(=C[C@@H]4C[C@H]1C(C)(C)O[C@@]2(C/C=C(/C)C(=O)O)C4=O)C3=O [Gambogic acid]
SARS-CoV-2 M^pro; [5]
  IC50: > 10 µM
SARS-CoV-2 M^pro; [6]
  inhibition at 10 µM: 22.8%

## C[C@@H]1O[C@@H](Oc2c(-c3ccc(O)c(O)c3)oc3cc(O)cc(O)c3c2=O)[C@H](O)[C@H](O)[C@H]1O [Quercitrin]
SARS-CoV-2 M^pro; [5]
  IC50: > 10 µM
SARS-CoV-2 M^pro; [6]
  inhibition at 10 µM: 2.42%
SARS-CoV-2 M^pro
  M^pro inhibition, result in words: unable to inhibit the M^pro enzyme

## O=c1c(O)c(-c2ccc(O)c(O)c2)oc2cc(O)ccc12 [Fisetin]
SARS-CoV-2 M^pro; [5]
  IC50: > 10 µM
SARS-CoV-2 M^pro; [6]
  SARS-CoV-2 M^pro % Inhibition at 10 μM: −11.21%

## Myricitrin
SARS-CoV-2 M^pro; [6]
  SARS-CoV-2 M^pro % Inhibition at 10 μM: 11.67%
SARS-CoV-2 M^pro
  M^pro inhibition, result in words: did not, however, inhibit M^pro
SARS-CoV-2 M^pro; listed as myricitrin
  M^pro inhibition, result in words: did not inhibit M^pro

## CCOC1=C(O)C(=O)O[C@@H]1[C@@H](O)CO [3-O-Ethyl-L-ascorbic acid]
SARS-CoV-2 M^pro
  IC50: > 10 µM
SARS-CoV-2 M^pro; [6]
  inhibition at 10 µM: 24.9%

## COC(=O)C1=CO[C@@H](O[C@@H]2O[C@H](CO)[C@@H](O)[C@H](O)[C@H]2O)[C@@H]2[C@@H](C)[C@@H](O)C[C@H]12 [Loganin]
SARS-CoV-2 M^pro
  IC50: > 10 µM
SARS-CoV-2 M^pro; [6]
  inhibition at 10 µM: 29.4%

## C=C1CC[C@H]2C(=C)CC[C@H]3C(=C)C(=O)O[C@@H]3[C@@H]12 [Dehydrocostus lactone]
SARS-CoV-2 M^pro; [5]
  IC50: > 10 µM
SARS-CoV-2 M^pro; [6]
  inhibition at 10 µM: 13.4%

## C=C1C(=O)[C@]23[C@H](O)[C@H]1CC[C@H]2[C@@]12CO[C@]3(O)[C@@H](O)[C@@H]1C(C)(C)CC[C@@H]2O [Oridonin]
[1]; [7]
  EC50: 0.0128 µM
[1]
  inhibition at 10 µM: 89%
SARS-CoV-2 M^pro; [6]
  inhibition at 10 µM: 81.9%

## O=C(OC1Cc2c(O)cc(O)cc2OC1c1cc(O)c(O)c(O)c1)c1cc(O)c(O)c(O)c1 [L-Epigallocatechin gallate]
[1]
  inhibition of viral titers: 81.4%
  EC50: 0.115 µM
SARS-CoV-2 M^pro; [6]
  inhibition at 10 µM: 105%
SARS-CoV-2 M^pro
  M^pro inhibition, result in words: completely inhibit the SARS-CoV-2 M^pro activity
[3]; listed as ECGC
  colloidal-like particle formation by DLS: do not form colloidal-like particles
[3]; listed as EGCG
  colloidal-like particle formation by DLS: neither of these compounds produced colloidal-like particles
[4]
  MDH inhibition with 0.01% Triton X-100 (detergent reversibility): reversed in the presence of detergent

## O=c1cc(-c2cc(O)c(O)c(O)c2)oc2cc(O)cc(O)c12 [Tricetin]
SARS-CoV-2 M^pro; [5]
  IC50: 7.84 µM
SARS-CoV-2 M^pro; [6]
  inhibition at 10 µM: 72.3%

— PMC9959258, “Discovery of Polyphenolic Natural Products as SARS-CoV-2 M^pro Inhibitors for COVID-19” (Pharmaceuticals, 2023)
